# Test results published in patent US20260258064A1 (SIRONAX LTD., priority 2023, published 2026).
# Biological target: T1, SARM1 (50-724) (Homo sapiens, UniProt Q6SZW1)
# T1 construct: Purified SARM1 (50-724) with a final concentration of 2 nM was pre-incubated with a test compound
# T1 sequence (Q6SZW1 50-724): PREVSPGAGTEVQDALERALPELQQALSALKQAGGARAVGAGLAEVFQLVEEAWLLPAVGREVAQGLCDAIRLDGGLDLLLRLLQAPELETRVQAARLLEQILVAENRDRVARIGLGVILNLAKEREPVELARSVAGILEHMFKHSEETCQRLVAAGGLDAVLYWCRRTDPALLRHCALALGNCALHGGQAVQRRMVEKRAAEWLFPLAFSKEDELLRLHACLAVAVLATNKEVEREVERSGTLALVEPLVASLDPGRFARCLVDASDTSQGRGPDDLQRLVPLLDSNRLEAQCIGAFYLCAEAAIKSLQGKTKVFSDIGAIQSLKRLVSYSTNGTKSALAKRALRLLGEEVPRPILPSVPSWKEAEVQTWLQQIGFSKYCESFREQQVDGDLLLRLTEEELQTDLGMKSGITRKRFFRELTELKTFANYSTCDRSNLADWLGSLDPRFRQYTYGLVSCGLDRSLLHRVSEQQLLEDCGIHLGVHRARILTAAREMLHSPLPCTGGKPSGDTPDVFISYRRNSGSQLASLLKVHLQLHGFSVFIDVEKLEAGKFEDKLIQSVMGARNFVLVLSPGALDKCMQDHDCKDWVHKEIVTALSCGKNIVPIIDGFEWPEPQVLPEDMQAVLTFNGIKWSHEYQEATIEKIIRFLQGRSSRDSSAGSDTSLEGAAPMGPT
# Assay: SARM1 (50-724) enzymatic assay (LC-MS/MS)
# Type: biochemical
# Details: Purified SARM1 (50-724) 2 nM, NMN as activator, NAD+ as substrate, 1 h at room temperature, read-out: IC50 (SARM1 inhibitory activity)
# Summary of the method: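 Human SARM1 (50-724), 2 nM, pre-incubated 15 min at room temperature with compound in Dulbecco's PBS. Reaction started with 200 µM NMN (activator) plus […] NAD^+ substrate, run 1 h at room temperature, quenched with 70% acetonitrile. Turnover quantified by LC-MS/MS; IC50 reported.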
row,Structure (SMILES),IC50 [nM]
1,"OCCc1cccc(OC(F)(F)F)c1-n1cnnc1-c1nc2cc(C(F)(F)F)ccc2[nH]1 [Compound 295, 2-(3-(trifluoromethoxy)-2-(3-(5-(trifluoromethyl)-1H-benzo[d]imidazol-2-yl)-4H-1,2,4-triazol-4-yl)phenyl)ethan-1-ol]",≤ 100
2,"FC(F)C12CC(n3cnnc3-c3nc4cc(C(F)(F)F)ccc4[nH]3)(C1)C2 [Compound 214, 2-(4-(3-(difluoromethyl)bicyclo[1.1.1]pentan-1-yl)-4H-1,2,4-triazol-3-yl)-5-(trifluoromethyl)-1H-benzo[d]imidazole]",> 1000
3,"FC(F)(F)c1ccncc1-n1cnnc1-c1nc2cc(N3C4COCC3C4)ccc2[nH]1 [Compound 342, 6-[2-[4-[4-(trifluoromethyl)-3-pyridyl]-1,2,4-triazol-3-yl]-1H-benzimidazol-5-yl]-3-oxa-6-azabicyclo[3.1.1]heptane]",500 to 1000
4,OCCOc1cc(-c2nc3cc(C(F)(F)F)ccc3[nH]2)c(-c2cccc(Cl)c2Cl)cn1 [Example 65],≤ 100

# The remaining lines, values ahead:
row,IC50 [nM],Structure (SMILES)
1,≤ 100,"Fc1cc(C(F)(F)F)cc2nc(-c3nncn3-c3cnccc3C(F)(F)F)[nH]c12 [Compound 233, 7-Fluoro-5-(trifluoromethyl)-2-(4-(4-(trifluoromethyl)pyridin-3-yl)-4H-1,2,4-triazol-3-yl)-1H-benzo[d]imidazole]"
2,≤ 100,"FC(F)(F)c1ccc2[nH]c(-c3nncn3-c3cncnc3C(F)(F)F)nc2c1 [Compound 415, 5-(trifluoromethyl)-2-(4-(4-(trifluoromethyl)pyrimidin-5-yl)-4H-1,2,4-triazol-3-yl)-1H-benzo[d]imidazole]"
3,≤ 100,"CC(Oc1cc(F)c2[nH]c(-c3nncn3-c3cnccc3C(F)(F)F)nc2c1)C(F)(F)F (stereo not shown) [Compound 355, 7-fluoro-2-(4-(4-(trifluoromethyl)pyridin-3-yl)-4H-1,2,4-triazol-3-yl)-5-((1,1,1-trifluoropropan-2-yl)oxy)-1H-benzo[d]imidazole]"
